{"source": "patent US10987317B2", "about": "“Inhibition of glutaminase C” (Cornell University, priority 2009, dated 2021)", "key": {"[1]": {"target": "T1, V5-tagged GAC from Dbl-transformed NIH 3T3 cells (Mus musculus, UniProt D3Z7P3)", "T1 construct": "expressed in transfected cells; host or cells: NIH 3T3 cells stably expressing oncogenic Dbl", "T1 sequence (D3Z7P3 55-603 isoform D3Z7P3-2 limits assumed)": "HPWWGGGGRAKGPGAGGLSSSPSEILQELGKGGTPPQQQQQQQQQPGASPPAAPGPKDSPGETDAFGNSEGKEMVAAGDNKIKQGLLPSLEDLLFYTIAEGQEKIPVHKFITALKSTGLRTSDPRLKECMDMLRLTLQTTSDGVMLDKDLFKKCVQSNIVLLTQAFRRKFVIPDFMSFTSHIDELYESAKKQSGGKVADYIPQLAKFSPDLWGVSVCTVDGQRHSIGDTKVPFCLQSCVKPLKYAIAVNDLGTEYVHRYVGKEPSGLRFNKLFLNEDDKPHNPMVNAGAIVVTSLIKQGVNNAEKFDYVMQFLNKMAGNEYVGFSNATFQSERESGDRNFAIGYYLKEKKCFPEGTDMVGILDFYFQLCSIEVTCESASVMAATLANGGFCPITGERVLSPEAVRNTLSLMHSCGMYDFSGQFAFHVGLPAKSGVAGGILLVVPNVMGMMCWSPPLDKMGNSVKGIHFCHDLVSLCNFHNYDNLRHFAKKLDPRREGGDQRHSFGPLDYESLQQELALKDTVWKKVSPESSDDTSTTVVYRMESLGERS", "assay": "GA activity of immunoprecipitated V5-GAC", "format": "cell-based", "details": "absence of phosphate", "description": "(§1) FIGS. 4A-E illustrate the role of glutaminase C activity in cellular transformation. […] Data represent the average of 3 experiments (±s.d.). […] Data represent the average of 3 experiments (±s.d.). […] 100% represents the activity measured in untreated Dbl-transformed cells. The data represent the average of 2 experiments. […] 100% represents the activity measured in untreated SKBR3 cells. The data represent the average of 2 experiments. […] Data represent the average of 3 experiments (±s.d.).\nNIH 3T3 cells or NIH 3T3 cells stably expressing the Dbl oncogene, were transiently transfected with DNA encoding a V5-tagged GAC. The cells were then harvested and the ectopically expressed GAC was isolated by immunoprecipitation via the V5 tag. The VS-GAC obtained from one of the Dbl samples was additionally treated with alkaline phosphtase under dephosphorylation conditions. The samples were then assayed for glutaminase activity in the absence of phosphate (top panel) and the relative expression levels of VS-GAC was determined by Western blotting using an anit-V5 antibody (bottom panel).\nNIH 3T3 cells stably expressing oncogenic Dbl were transiently transfected with DNA encoding VS-tagged GAC, and cells were treated with either 968 or BA-968 ([…]) as indicated for 48 hours. The cells were then harvested and the ectopically expressed GAC was isolated by immunoprecipitation via the V5 tag. The samples were then assayed for glutaminase activity in the absence of phosphate (top panel) and the relative expression levels of VS-GAC was determined by Western blotting using an anti-V5 antibody (bottom panel)."}, "[2]": {"system": "GA activity in Dbl- and Cdc42(F28L)-expressing NIH 3T3 cells", "assay": "GA activity in mitochondrial fractions of transformed fibroblasts", "format": "cell-based", "details": "10 μM", "protocol": "100%=620 moles of glutamine hydrolyzed per minute per mole of enzyme. Data represent the average of 3 experiments (±s.d.). […] Following precipitation of the beads and re-suspension, the samples are analyzed by Western blotting with anti-V5 antibody. […] Data represent the average of 3 experiments (±s.d.). […] Data represent the average of 3 experiments (±s.d.). […] Data represent the average of 3 experiments (±s.d.). FIG. 3E NIH 3T3 cells transiently expressing Dbl are assayed for focus formation in the presence of 10 μM 968 alone or together with […] dimethyl α-ketoglutarate. […] 100%=680 nM glutamine hydrolyzed per minute per 10^5 cells. Data are the average of 3 experiments (=s.d.). […] 100%=750 nM glutamine hydrolyzed per minute per 10^5 cells. Data represent the average of 3 experiments (±s.d.).\nas §1\nFIGS. 11A-E illustrate the effects of different treatments on GA activity. […] The addition of Pi stimulated the GA activity in control 3T3 cells, Dbl-expressing cells, and Cdc42(F28L)-expressing cells by ˜6-fold, 2-fold, and 3-fold, respectively. 100% represents the Pi-stimulated activity measured for Dbl-transformed cells that are not treated with 968. Data is the average of 3 experiments (±s.d.). […] The addition of Pi stimulated the GA activity of HMECs, MDA-MB231 cells, and SKBR3 cells by ˜5-fold, 2-fold, and 1.4-fold, respectively. 100% represents the Pi-stimulated activity for SKBR3 cells that were not treated with 968. Data are the average of 3 experiments (±s.d.). […] Mitochondrial fractions are prepared from equal numbers of cells and assayed for GA activity in the presence or absence of 133 mM Pi. The data are plotted as the percentage of GA activity measured for untreated SKBR3 cells and represent the average of 2 experiments. […] 100% represents the P1-stimulated activity measured for untreateDbl-transformed cells. The data represent the average of 2 experiments. […] 100% represents the Pi-stimulated activity for untreated SKBR3 cells. The data represent the average of 2 experiments.\nMitochondrial preparations were obtained using the mitochondria isolation kit from QIAGEN (Cat #37612). A suspension containing 2×10^7 cells was transferred into a 50 ml conical tube and centrifuged at 500×g for 10 minutes at 4° C. […]"}}}
{"compound": "CN(C)c1ccc(C2Nc3ccc4ccccc4c3C3=C2C(=O)CC(C)(C)C3)cc1Br", "note": "(stereo not shown) [Compound 968, 5-[3-bromo-4-(dimethylamino)phenyl]-2,2-dimethyl-2,3,5,6-tetrahydrobenzo[a]]", "values": [{"measurement": "GA activity IPed from Dbl-transformed cells", "setting": "[1]; 10 μM", "result": "inhibited"}, {"measurement": "GAC activity after treatment of cells (FIG. 19)", "setting": "[1]; cells treated 10 mM for 48 hours", "result": "effective inhibitors"}, {"measurement": "GA activity of transformed cells", "setting": "[2]", "result": "inhibits"}, {"measurement": "sensitivity of basal versus phosphate-stimulated GA activity", "setting": "[2]; 133 mM Pi", "result": "basal activity being more sensitive"}]}
